According to patent US10118943B2, “Compounds and methods for inhibiting cell death” (Ramot at Tel-Aviv University Ltd., priority 2012, dated 2018):
Entries after “also recorded” stand apart in the source; their conditions may differ.

Assays:
rat brain extracts = assay: NAP / D-SAL affinity chromatography with rat brain extracts, mass spectrometry; type: binding; details: repeated twice
Procedure: The affinity chromatography column included SulfoLink® Immobilization Kit for Peptides (44999, Thermo Scientific, Rockford, Ill., USA). Binding of […] was performed according to the manufacturers' instruction. Recombinant protein was loaded (2 mg/mL) on the columns (2 mL) and incubated overnight at 4° C.; the columns were then washed with phosphate-buffered saline until all unbound protein was eluted [as confirmed by protein assay (Bradford; Bio-Rad Laboratories, Mannheim, Germany)]. NAP-binding proteins were eluted in IgG Elution buffer (pH 2.8) (Thermo scientific). […] Sodium dodecyl sulfate-polyacrylamide gel electrophoresis (SDS-PAGE) was then performed followed by western blot analysis in order to detect the protein (R. Zamostiano et al., J Biol Chem 276, 708 (Jan. 5, 2001)).
Affinity chromatography was carried out as above with rat brain extracts as before (34, 36). However, several additional experiments were undertaken and mass spectrometry was employed to identify additional potential NAP-interacting proteins that elute from the affinity column.

PC12 cells [1] = assay: PC12 cell survival assay, zinc toxicity, MTS (Example 1); details: for protection against zinc-induced PC12 cell death (MTS) with EB3 silenced: RNA silencing of EB3
Procedure: PC12 cells (Pheochromocytoma cells) (ATCC, Bethesda, Md., USA) were seeded at 3×10^4 cells/cm^2 on poly-L-Lysine coated plastic tissue culture dishes (Corning, Lowell, Mass., USA) to form an adherent monolayer. Cells were maintained in Dulbecco's modified Eagle's medium (DMEM) supplemented with 10% horse serum (HS), 5% fetal calf serum (FCS), 2 mM glutamine, 100 U/ml penicillin and […] streptomycin (Biological Industries, Beit Haemek, Israel). PC12 differentiation was induced by nerve growth factor (NGF, Sigma) at concentrations of 50 ng/ml by replacing half of the medium every other day until the cells acquired a differentiated morphology. Differentiated cells were defined as bearing two or more neurites with lengths equal to or more than twice the diameter of the cell body (P. Lamoureux et al., The Journal of cell biology 110, 71 (January, 1990)). The cells were incubated in 5% CO2 in a humidified incubator at 37° C. The cells were sub-cultured every 5 days at a 4:1 split ratio by pipetting. The medium was changed every 2 or 3 days after adhesion.
Transfections were performed using Lipofectamine RNAiMAX (Invitrogen). Transfection was carried out according to manufacturer's protocol. For rat MAPRE3 knockdown, PC12 cells or neurons were plated in growth medium without antibiotics at concentration of 10^4 cells/0.32 cm^2 such that they will be 30-50% confluent at the time of transfection. To obtain the highest transfection efficiency and low non-specific effects, siRNA transfection was performed in the following optimized conditions: 50 nM for neurons and 25 nM PC12 of each siRNA construct with 0.2 μl Lipofectamine RNAiMAX (Invitrogen) was added per well of the 96-well plate and scaled up for different 24 or 6-well plates, according to the manufacturer's instructions. The medium was changed one day after transfection. 48 and 72 hours later, cells were harvested to assay for gene knockdown at the RNA and protein levels.
The cells were incubated for 4 hrs at 37° C. 5% CO2. Survival was measured using the MTS assay.
Metabolic activity of cells was measured by the CellTiter 96® Aqueous Non-Radioactive Cell Proliferation kit in accordance with the manufacturer's instructions (Promega). The assay uses a colorimetric method for determining the number of viable cells employing a tetrazolium compound [3-(4,5-dimethylthiazol-2-yl)-5-(3-carboxymethoxyphenyl)-2-(4-sulfophenyl)-2H-tetrazolium, MTS] and an electron-coupling reagent, phenazine methosulfate (PMS). MTS is bio-reduced by cells into a formazan product that is detected at 490 nm. The conversion of MTS into the formazan form is accomplished by dehydrogenase enzymes found in metabolically active cells. Thus, the quantity of formazan product as measured by the amount of 490 nm absorbance is directly proportional to the number of living cells in culture (A. H. Cory, T. C. Owen, J. A. Barltrop, J. G. Cory, Cancer Commun 3, 207 (July, 1991)).

primary cortical neurons = assay: PSD-95 density in primary cortical neuron culture; type: cell-based, rat
Procedure: Methods: 1. Primary cultures of neurons were prepared as follows. Newborn rats were sacrificed on postnatal day 1. Cerebral cortex tissue was then dissected and dissociated individually from each pup with the Papain Dissociation System (PDS; Worthington Biochemical Corporation) according to the manufacturer's instructions. 2. Cells were fixed with ice cold methanol, blocked with 2% bovine serum albumin (BSA) and 5% normal goat serum in Tris buffered saline containing tween 20 (TBS-T; 20 mM Tris pH 7.5, 136.8 mM NaCl, and 0.05% v/v Tween 20), and incubated with primary antibody followed by the appropriate secondary antibody. 3. Primary antibodies that were used include: monoclonal anti PSD-95 (ab-2723, Abcam), monoclonal anti Tyr-α-tubulin antibody (YL1/2) (VMA1864, Abcys, Paris, France), polyclonal anti Glu-α-tubulin antibody (L4) (AbC0101, Abcys, Paris, France), DyLight 488-labeled secondary goat anti-mouse IgG, DyLight 633-labeled secondary goat anti-rabbit IgG (KPL, Gaithersburg, Md., USA), Cy3-conjugated secondary goat anti-Rat IgG, (Jackson ImmunoResearch). 4. Images were collected with a Leica SP5 confocal laser scanning microscope (Mannheim, Germany) with 63× oil immersion optics, laser lines at 488, 561, 633 nm. Identical confocal laser scanning microscopy (CLSM) parameters (e.g., scanning line, laser light, gain, and offset etc.) were used for control and NAP treated cells.
For instance, a PSD-95 expression assay using primary cortical neuron cultures established from suitable animals may be performed to confirm a compound's activity in promoting cell plasticity. More specifically, primary cultures of neurons are prepared by first taking cerebral cortex tissue from newborn rats on postnatal day 1. The cerebral cortex tissue is then dissected and dissociated individually from each animal. Cells are fixed with ice cold methanol, blocked (e.g., with bovine serum albumin (BSA) and normal goat serum), and incubated with primary antibody (e.g., monoclonal antibody against PSD-95), optionally followed by the appropriate secondary antibody for imaging purposes. Images of primary neuronal cultures are taken and compared between cultures with or without being exposed to a test compound. An increased PSD-95 expression is indicative of the test compound being capable of promoting or protecting cell plasticity, especially neuronal plasticity.
Cerebral cortex tissue from newborn rats was dissected and dissociated individually from each pup with the Papain Dissociation System (PDS), (Worthington Biochemical Corporation) according to the manufacturer's instructions. Cortical neurons were maintained in Neurobasal medium (NB), (Gibco) supplemented with NeuroCult B27-SM1 ([…]), 1% Glutamax (Gibco), and grown on poly-D-lysine-coated cell culture glass cover slips.
Images were collected with a Leica SP5 confocal laser scanning microscope (Mannheim, Germany) with 63× oil immersion optics, laser lines at 488, 561, 633 nm or with LSM 510 META (Zeiss, Jena, Germany) confocal laser scanning microscope with 63× oil immersion optics, laser lines at 488, 568, 633 nm. When comparing fluorescence intensities, identical CLSM parameters (e.g., scanning line, laser light, gain, and offset etc.) were used. All of the fluorescent signals acquired were above the autofluorescent background as measured from a control slide stained with secondary antibody without a primary antibody. To compare the relative levels of protein expression, the average integrated density (AID) image analysis procedure was used for cell immunostains. In brief, integrated density is defined by the sum of the values of the pixels in the selected region of interest (ROI). This is equivalent to the product of Area and Mean Gray Value. AID for the positive stained area was determined by measuring the fluorescent intensity of the ROI, which is above the positive cut-off intensity. […]

PC12 cells [2] = details: ZnCl2 400 μM, 4 h
Procedure: FIG. 15: Rat pheochromocytoma cells (PC12) were seeded on Poly-D-Lysine coated 96-well tissue culture dishes in high concentration (30,000 cells/well). On the day of the experiment the cells were treated with ZnCl2 (400 μM) either alone or in combination with different concentration of SKIP for 4 h. After 4 h the cell viability was analyzed by MTS assay. […] All values are from one experiment performed in hexplicate.
Rat pheochromocytoma cell (PC12, ATCC, Bethesda, Md., USA) were grown in 10-cm tissue culture dishes (Corning). The base medium for this cell line was RPMI-1640 Medium (Invitrogen) supplemented with 10% heat-inactivated horse serum, 5% fetal bovine serum and solution containing 100 U/ml penicillin together with […] streptomycin (Biological Industries, Beit Haemek, Israel). The cells were incubated in 95% air; 5% CO2 in a humidified incubator at 37° C. The medium was changed every 2 to 3 days. The cells were subcultured when cell density reached 4×10^6 cells/ml. The cells were split in a ratio of 1:4.
On the day before the experiment cells were to be harvested, re-suspended and seeded on tissue culture dishes. For cell viability measurements, cells were seeded on Poly-D-Lysine coated 96-well tissue culture dishes (Sigma-Aldrich) at a concentration of 3×10^4 cells/well.
The cell viability is measured by colorimetric method that determines the number of viable cells in culture. This method is based on the bio-reduction of the tetrazolium compound [3-(4,5-dimethylthiazol-2-yl)-5-(3-carboxymethoxyphenyl)-2-(4-sulfophenyl)-2H-tetrazolium; MTS] by living cells into a colored formazan product. This reaction is occurring in the presence of an electron coupling reagent (phenazine ethosulfate; PES). The amount of formazan product is measured by ELISA plate reader at 490 nm and is directly proportional to the number of living cells in culture (CellTiter 96® AQueous One Solution Cell Proliferation Assay; Promega, Madison, Wis., USA).

PC12 cells [3] = details: previously published data, read-out: EC50 for zinc cell killing effect; cited from earlier work

Compound	interaction with drebrin (affinity column eluate, mass spectrometry) (rat brain extracts)	protection against cell death induced by zinc toxicity (MTS survival) (PC12 cells [1]; 400 μM zinc, 4 hrs, peptide 10^−9M)	protection against cell death induced by zinc toxicity (MTS) (PC12 cells [1]; 400 μM zinc, 4 hrs, peptide 10^−15M)	protection against zinc-induced PC12 cell death (MTS) with EB3 silenced (PC12 cells [1]; 500 microM zinc, NAP 10^−15M)	protection against zinc-induced PC12 cell death (MTS) with EB3 silenced (PC12 cells [1]; 500 microM zinc, NAP 10^−15M, listed as NAPVSIPQ)	protection against zinc-induced PC12 cell death (MTS) (PC12 cells [1]; 500 microM zinc, NAP 10^−15M, control situations (non-specific siRNA, no treatment))	effect on PSD-95 expression with EB3 silencing (primary cortical neurons; 10^−12M NAP, 48 hours siRNA against EB3)	increase in PSD-95 expression (primary cortical neurons; 10^−12M, 2 hrs, 13 DIV cortical neurons (FIG. 10d))	PSD-95 expression in dendrites (FIG. 11) (primary cortical neurons; 10^−12M, DIV 13, 2 hours)	density of PSD-95 puncta vs vehicle controls (primary cortical neurons; NAP 10^−18M-10^−9M, DIV 13, 2 hrs)	peak effect on density of PSD-95 over control (primary cortical neurons; NAP concentration of 10-12M, 2 hours)	derivative peptides effect on PSD-95 density vs vehicle controls (FIG. 10c) (primary cortical neurons; neurons treated for 2 hrs)	zinc concentration at which significant cell death was observed (PC12 cells [1]; PC12 cells, 4 hrs, data not shown)	reduction of cell viability by zinc (PC12 cells [1]; vs control without zinc)	cell death from zinc treatment (PC12 cells [2])	EC50 (PC12 cells [3])
CC[C@H](C)[C@H](NC(=O)[C@H](CO)NC(=O)[C@@H](NC(=O)[C@@H]1CCCN1C(=O)[C@H](C)NC(=O)[C@@H](N)CC(N)=O)C(C)C)C(=O)N1CCC[C@H]1C(=O)N[C@@H](CCC(N)=O)C(=O)O [NAP]	specific interaction	significant protection effect; also recorded: significantly increased survival	significant protection effect	not in the presence of EB3 silencing	does not protect	protected against by NAP treatment; also recorded: protects in the control situations	abolished NAP activity; also recorded: completely inhibited	75%	enhances PSD-95 expression	significantly increased	50%	significantly increased	–	–	–	–
[Cl-].[Cl-].[Zn+2] [zinc, ZnCl2]	–	–	–	–	–	–	–	–	–	–	–	–	> 200 µM	~25%	~20%	308 ± 38 µM
